According to article PMC5042751 (Molecular Medicine Reports, 2016):
Read-outs that look alike come from different tables or passages of the source.

Assays:
Cyp3a1 [1] = test system: Cyp3a1
Slco2b1 = assay: Intestinal mRNA expression by RT-qPCR; format: in vivo, rats; conditions: rat small intestine
Mrp2 [2] = assay: Intestinal and hepatic protein expression by western blotting; format: in vivo, rats
Cyp3a2 [3] = test system: Cyp3a2
Ugt1a1 [4] = assay: Intestinal and hepatic mRNA expression by RT-qPCR; format: in vivo, rats
OATP2B1 = assay: Intestinal protein expression by western blotting; format: in vivo, rats; conditions: rat small intestine
Bcrp [5] = assay: Intestinal and hepatic protein expression by western blotting; format: in vivo, rats
OATP1B2 = assay: Hepatic protein expression by western blotting; format: in vivo, rats; conditions: rat liver
Cyp3a1 [6] = test system: Cyp3a1; remark: listed apart in the source
Mrp2 [7] = assay: Intestinal and hepatic mRNA expression by RT-qPCR; format: in vivo, rats
Ugt1a1 [8] = assay: Intestinal and hepatic protein expression by western blotting; format: in vivo, rats
Mdr1 = conditions: for decrease in mRNA expression level of Mdr1: rat liver
Slco1b2 = assay: Hepatic mRNA expression by RT-qPCR; format: in vivo, rats; conditions: rat liver
P-gp = conditions: for decrease in protein expression level of P-gp: Que 100 mg/kg (high-dose) oral 7 days vs control
Bcrp [9] = assay: Intestinal and hepatic mRNA expression by RT-qPCR; format: in vivo, rats
Cyp3a2 [10] = test system: Cyp3a2; remark: listed apart in the source
[11] = rat liver, Que 25 mg/kg (low-dose) oral 7 days vs control
[12] = rat liver, Que 50 mg/kg (moderate-dose) oral 7 days vs control
[13] = rat liver, Que 100 mg/kg (high-dose) oral 7 days vs control
[14] = rat liver, Que 100 mg/kg with CsA 10 mg/kg oral 7 days (Que-WC) vs CsA alone
[15] = rat small intestine, Que 25 mg/kg oral 7 days without CsA (Que-WOC) vs control
[16] = rat small intestine, Que 50 mg/kg oral 7 days without CsA (Que-WOC) vs control
[17] = rat small intestine, Que 100 mg/kg oral 7 days without CsA (Que-WOC) vs control
[18] = Que 25 mg/kg oral 7 days without CsA (Que-WOC) vs control
[19] = Que 50 mg/kg oral 7 days without CsA (Que-WOC) vs control
[20] = Que 100 mg/kg oral 7 days without CsA (Que-WOC) vs control
[21] = rat liver, Que 25 mg/kg oral 7 days without CsA (Que-WOC) vs control
[22] = rat liver, Que 50 mg/kg oral 7 days without CsA (Que-WOC) vs control
[23] = rat liver, Que 100 mg/kg oral 7 days without CsA (Que-WOC) vs control
[24] = rat liver, Que 100 mg/kg with CsA 10 mg/kg oral 7 days (Que-WC) vs CsA treatment
[25] = rat liver, Que 25 mg/kg with CsA 10 mg/kg oral 7 days (Que-WC) vs CsA alone
[26] = rat liver, Que 50 mg/kg with CsA 10 mg/kg oral 7 days (Que-WC) vs CsA alone
[27] = Que 50 mg/kg with CsA 10 mg/kg oral 7 days (Que-WC) vs CsA treatment
[28] = Que 100 mg/kg with CsA 10 mg/kg oral 7 days (Que-WC) vs CsA treatment

## O=c1c(O)c(-c2ccc(O)c(O)c2)oc2cc(O)cc(O)c12 [Que, 3,3′,4′,5,7-pentahydroxyflavone]
Cyp3a1 [1]; [11]
  change in protein expression level of CYP3A1: did not produce significant effects
Cyp3a1 [1]; [12]
  change in protein expression level of CYP3A1: did not produce significant effects
Cyp3a1 [1]; [13]
  decrease in protein expression level of CYP3A1: 70%
Cyp3a1 [1]; [14]
  decrease in protein expression level of CYP3A1: 56%
Cyp3a1 [1]; [15]
  decrease in protein expression level of CYP3A1: 17%
Cyp3a1 [1]; [16]
  decrease in protein expression level of CYP3A1: 45%
Cyp3a1 [1]; [17]
  decrease in protein expression level of CYP3A1: 91%
Slco2b1; [18]
  decrease in mRNA expression level of Slco2b1: 84%
Slco2b1; [19]
  decrease in mRNA expression level of Slco2b1: 92%
Slco2b1; [20]
  decrease in mRNA expression level of Slco2b1: 97%
Mrp2 [2]; [21]
  decrease in protein expression level of MRP2: 14%
Mrp2 [2]; rat liver, Que 25 mg/kg with CsA 10 mg/kg oral 7 days (Que-WC) vs CsA treatment
  decrease in protein expression level of MRP2: 22%
Mrp2 [2]; [22]
  decrease in protein expression level of MRP2: 27%
Mrp2 [2]; rat liver, Que 50 mg/kg with CsA 10 mg/kg oral 7 days (Que-WC) vs CsA treatment
  decrease in protein expression level of MRP2: 23%
Mrp2 [2]; [23]
  decrease in protein expression level of MRP2: 58%
Mrp2 [2]; [24]
  decrease in protein expression level of MRP2: 35%
Mrp2 [2]; [15]
  decrease in protein expression level of MRP2: 13%
Mrp2 [2]; [16]
  decrease in protein expression level of MRP2: 45%
Mrp2 [2]; [17]
  decrease in protein expression level of MRP2: 93%
Cyp3a2 [3]; [21]
  decrease in mRNA expression level of Cyp3a2: 21%
Cyp3a2 [3]; [25]
  decrease in mRNA expression level of Cyp3a2: 16%
Cyp3a2 [3]; [22]
  decrease in mRNA expression level of Cyp3a2: 37%
Cyp3a2 [3]; [26]
  decrease in mRNA expression level of Cyp3a2: 48%
Cyp3a2 [3]; [23]
  decrease in mRNA expression level of Cyp3a2: 49%
Cyp3a2 [3]; [14]
  decrease in mRNA expression level of Cyp3a2: 57%
Cyp3a2 [3]; [15]
  decrease in mRNA expression level of Cyp3a2: 61%
Cyp3a2 [3]; [16]
  decrease in mRNA expression level of Cyp3a2: 70%
Cyp3a2 [3]; [17]
  decrease in mRNA expression level of Cyp3a2: 90%
Ugt1a1 [4]; [21]
  decrease in mRNA expression of Ugt1a1: 41%
Ugt1a1 [4]; [25]
  decrease in mRNA expression level of Ugt1a1: 28%
Ugt1a1 [4]; [22]
  decrease in mRNA expression of Ugt1a1: 81%
Ugt1a1 [4]; [26]
  decrease in mRNA expression level of Ugt1a1: 71%
Ugt1a1 [4]; [23]
  decrease in mRNA expression of Ugt1a1: 92%
Ugt1a1 [4]; [14]
  decrease in mRNA expression level of Ugt1a1: 92%
Ugt1a1 [4]; [15]
  decrease in mRNA expression of Ugt1a1: 20%
Ugt1a1 [4]; [16]
  decrease in mRNA expression of Ugt1a1: 76%
Ugt1a1 [4]; [17]
  decrease in mRNA expression of Ugt1a1: 84%
OATP2B1; [18]
  change in protein expression level of OATP2B1: did not produce a significant effect
OATP2B1; [19]
  decrease in protein expression level of OATP2B1: 43%
OATP2B1; [20]
  decrease in protein expression level of OATP2B1: 76%
Bcrp [5]; [21]
  decrease in protein expression level of BCRP: 7%
Bcrp [5]; [25]
  decrease in protein expression level of BCRP: 23%
Bcrp [5]; [22]
  decrease in protein expression level of BCRP: 27%
Bcrp [5]; [26]
  decrease in protein expression level of BCRP: 31%
Bcrp [5]; [23]
  decrease in protein expression level of BCRP: 75%
Bcrp [5]; [14]
  decrease in protein expression level of BCRP: 67%
Bcrp [5]; [15]
  decrease in protein expression level of BCRP: 17%
Bcrp [5]; [16]
  decrease in protein expression level of BCRP: 49%
Bcrp [5]; [17]
  decrease in protein expression level of BCRP: 90%
OATP1B2; [18]
  change in protein expression level of OATP1B2: did not produce a significant effect
OATP1B2; [19]
  decrease in protein expression level of OATP1B2: 48%
OATP1B2; [27]
  decrease in protein expression level of OATP1B2: 38%
OATP1B2; [20]
  decrease in protein expression level of OATP1B2: 86%
OATP1B2; [28]
  decrease in protein expression level of OATP1B2: 72%
Cyp3a1 [6]; [21]
  decrease in mRNA expression level of Cyp3a1: 37%
Cyp3a1 [6]; [25]
  decrease in mRNA expression level of Cyp3a1: 31%
Cyp3a1 [6]; [22]
  decrease in mRNA expression level of Cyp3a1: 86%
Cyp3a1 [6]; [26]
  decrease in mRNA expression level of Cyp3a1: 77%
Cyp3a1 [6]; [23]
  decrease in mRNA expression level of Cyp3a1: 98%
Cyp3a1 [6]; [14]
  decrease in mRNA expression level of Cyp3a1: 65%
Cyp3a1 [6]; [15]
  decrease in mRNA expression level of Cyp3a1: 45%
Cyp3a1 [6]; [16]
  decrease in mRNA expression level of Cyp3a1: 83%
Cyp3a1 [6]; [17]
  decrease in mRNA expression level of Cyp3a1: 88%
Mrp2 [7]; [21]
  decrease in mRNA expression level of Mrp2: 45%
Mrp2 [7]; [25]
  decrease in mRNA expression level of Mrp2: 38%
Mrp2 [7]; [22]
  decrease in mRNA expression level of Mrp2: 52%
Mrp2 [7]; [26]
  decrease in mRNA expression level of Mrp2: 36%
Mrp2 [7]; [23]
  decrease in mRNA expression level of Mrp2: 98%
Mrp2 [7]; [14]
  decrease in mRNA expression level of Mrp2: 99%
Mrp2 [7]; [15]
  decrease in mRNA expression level of Mrp2: 45%
Mrp2 [7]; [16]
  decrease in mRNA expression level of Mrp2: 69%
Mrp2 [7]; [17]
  decrease in mRNA expression level of Mrp2: 96%
Ugt1a1 [8]; [21]
  decrease in protein expression level of UGT1A1: 16%
Ugt1a1 [8]; [25]
  change in protein expression level of UGT1A1: did not produce significant effects
Ugt1a1 [8]; [22]
  decrease in protein expression level of UGT1A1: 42%
Ugt1a1 [8]; [26]
  change in protein expression level of UGT1A1: did not produce significant effects
Ugt1a1 [8]; [23]
  decrease in protein expression level of UGT1A1: 87%
Ugt1a1 [8]; [14]
  decrease in protein expression level of UGT1A1: 72%
Ugt1a1 [8]; [15]
  decrease in protein expression level of UGT1A1: 12%
Ugt1a1 [8]; [16]
  decrease in protein expression level of UGT1A1: 41%
Ugt1a1 [8]; [17]
  decrease in protein expression level of UGT1A1: 91%
Mdr1; [18]
  decrease in mRNA expression level of Mdr1: 64%
Mdr1; Que 25 mg/kg with CsA 10 mg/kg oral 7 days (Que-WC) vs CsA alone
  decrease in mRNA expression level of Mdr1: 68%
Mdr1; [19]
  decrease in mRNA expression level of Mdr1: 87%
Mdr1; Que 50 mg/kg with CsA 10 mg/kg oral 7 days (Que-WC) vs CsA alone
  decrease in mRNA expression level of Mdr1: 68%
Mdr1; [20]
  decrease in mRNA expression level of Mdr1: 91%
Mdr1; Que 100 mg/kg with CsA 10 mg/kg oral 7 days (Que-WC) vs CsA alone
  decrease in mRNA expression level of Mdr1: 90%
Mdr1; [15]
  change in mRNA expression level of Mdr1: did not produce a significant effect
Mdr1; [16]
  increase in mRNA expression level of Mdr1: 75%
Mdr1; [17]
  increase in mRNA expression level of Mdr1: 80%
Slco1b2; [18]
  decrease in mRNA expression level of Slco1b2: 79%
Slco1b2; Que 25 mg/kg with CsA 10 mg/kg oral 7 days (Que-WC) vs CsA treatment
  decrease in mRNA expression level of Slco1b2: 72%
Slco1b2; [19]
  decrease in mRNA expression level of Slco1b2: 92%
Slco1b2; [27]
  decrease in mRNA expression level of Slco1b2: 90%
Slco1b2; [20]
  decrease in mRNA expression level of Slco1b2: 95%
Slco1b2; [28]
  decrease in mRNA expression level of Slco1b2: 94%
P-gp; [11]
  change in protein expression level of P-gp: did not produce a significant effect
P-gp; [12]
  change in protein expression level of P-gp: did not produce a significant effect
P-gp; rat liver
  decrease in protein expression level of P-gp: 84%
P-gp; [24]
  decline in protein expression level of P-gp: 76%
P-gp; rat small intestine, Que 25 mg/kg (low-dose) oral 7 days vs control
  change in protein expression level of P-gp: did not produce a significant effect
P-gp; rat small intestine, Que 50 mg/kg (moderate-dose) oral 7 days vs control
  change in protein expression level of P-gp: did not produce a significant effect
P-gp; rat small intestine
  decrease in protein expression level of P-gp: 81%
Bcrp [9]; [21]
  decrease in mRNA expression level of Bcrp: 55%
Bcrp [9]; [25]
  decrease in mRNA expression level of Bcrp: 68%
Bcrp [9]; [22]
  decrease in mRNA expression level of Bcrp: 77%
Bcrp [9]; [26]
  decrease in mRNA expression level of Bcrp: 77%
Bcrp [9]; [23]
  decrease in mRNA expression level of Bcrp: 88%
Bcrp [9]; [14]
  decrease in mRNA expression level of Bcrp: 89%
Bcrp [9]; [15]
  decrease in mRNA expression level of Bcrp: 46%
Bcrp [9]; [16]
  decrease in mRNA expression level of Bcrp: 70%
Bcrp [9]; [17]
  decrease in mRNA expression level of Bcrp: 92%
Cyp3a2 [10]; [11]
  change in protein expression level of CYP3A2: did not produce significant effects
Cyp3a2 [10]; [12]
  change in protein expression level of CYP3A2: did not produce significant effects
Cyp3a2 [10]; [13]
  decrease in protein expression level of CYP3A2: 73%
Cyp3a2 [10]; [14]
  decrease in protein expression level of CYP3A2: 54%
Cyp3a2 [10]; [15]
  decrease in protein expression level of CYP3A2: 14%
Cyp3a2 [10]; [16]
  decrease in protein expression level of CYP3A2: 40%
Cyp3a2 [10]; [17]
  decrease in protein expression level of CYP3A2: 95%
